Key:
Type in all cases: in vivo
[1] = test system: PUCCINIA RECONDITA (WHEAT); test: Foliar fungal disease test on plants (foliar spray plus root drench), Puccinia recondita on wheat; conditions: 100 ppm active ingredient sprayed on foliage, root drench approximately 40 ppm a.i./dry soil; applied one or two days before inoculation
Protocol: (§1) The compounds were tested against a variety of foliar fungal diseases of plants. The technique employed was as follows. The plants were grown in John Innes Potting Compost (No 1 or 2) in 4 cm diameter minipots. The test compounds were formulated either by bead milling with aqueous Dispersol T or as a solution in acetone or acetone/ethanol which was diluted to the required concentration immediately before use. For the foliage diseases, the formulations (100 ppm active ingredient) were sprayed on to the foliage and applied to the roots of the plants in the soil. The sprays were applied to maximum retention and the root drenches to a final concentration equivalent to approximately 40 ppm a.i./dry soil. Tween 20, to give a final concentration of 0.05%, was added when the sprays were applied to cereals. For most of the tests the compound was applied to the soil (roots) and to the foliage (by spraying) one or two days before the plant was inoculated with the disease. An exception was the test on Erysiphe graminis in which the plants were inoculated 24 hours before treatment. Foliar pathogens were applied by spray as spore suspensions onto the leaves of test plants. After inoculation, the plants were put into an appropriate environment to allow infection to proceed and then incubated until the disease was ready for assessment. The period between inoculation and assessment varied from four to fourteen days according to the disease and environment. The disease control was recorded by the following grading:- • 4 = no disease • 3 = trace - 5% of disease on untreated plants • 2 = 6-25% of disease on untreated plants • 1 = 26-59% of disease on untreated plants • 0 = 60-100% of disease on untreated plants

[2] = test system: ERYSIPHE GRAMINIS (BARLEY); test: Foliar fungal disease test on plants (foliar spray plus root drench), Erysiphe graminis on barley; conditions: 100 ppm active ingredient sprayed on foliage, root drench approximately 40 ppm a.i./dry soil; plants inoculated 24 hours before treatment
Protocol: as §1

[3] = test system: VENTURIA INAEQUALIS (APPLE); test: Foliar fungal disease test on plants (foliar spray plus root drench), Venturia inaequalis on apple; conditions: 100 ppm active ingredient sprayed on foliage, root drench approximately 40 ppm a.i./dry soil; applied one or two days before inoculation
Protocol: as §1

[4] = test system: CERCOSPORA ARACHIDICOLA (PEANUT); test: Foliar fungal disease test on plants (foliar spray plus root drench), Cercospora arachidicola on peanut; conditions: 100 ppm active ingredient sprayed on foliage, root drench approximately 40 ppm a.i./dry soil; applied one or two days before inoculation
Protocol: as §1

Which results are given for CC(C)(C)c1ccc(C2CC2CC2CCNCC2)cc1 (stereo not drawn) [Compound 1, 4-[2-(p-t-butylphenyl)-cyclopropylmethyl]-piperidine]?
disease control grading, PUCCINIA RECONDITA (WHEAT) [1]: 4 (4 = no disease); disease control grading, ERYSIPHE GRAMINIS (BARLEY) [2]: 4 (4 = no disease); disease control grading, VENTURIA INAEQUALIS (APPLE) [3]: 0 (0 = 60-100% of disease on untreated plants); disease control grading, CERCOSPORA ARACHIDICOLA (PEANUT) [4]: 1 (1 = 26-59% of disease on untreated plants)

What does the source list for C[C@@H]1CN(C[C@@H]2C[C@H]2c2ccc(C(C)(C)C)cc2)C[C@H](C)O1 (relative stereo) [Compound 4, 4-[2-(p-t-butylphenyl)-trans-cyclopropylmethyl]-2,6-cis-dimethylmorpholine]?
disease control grading, PUCCINIA RECONDITA (WHEAT) [1]: 3 (3 = trace - 5% of disease on untreated plants); disease control grading, ERYSIPHE GRAMINIS (BARLEY) [2]: 4 (4 = no disease); disease control grading, VENTURIA INAEQUALIS (APPLE) [3]: 3 (3 = trace - 5% of disease on untreated plants); disease control grading, CERCOSPORA ARACHIDICOLA (PEANUT) [4]: 0 (0 = 60-100% of disease on untreated plants)

For CC(C)(C)c1ccc(C2C(CN3CCOCC3)C2(C)C)cc1 (stereo not drawn) [Compound 8, 4-[2-(p-t-butylphenyl)-3,3-dimethylcyclopropylmethyl]-morpholine], which “disease control grading, PUCCINIA RECONDITA (WHEAT)” value [1] is on record?
The value was 0 (0 = 60-100% of disease on untreated plants).

And the “disease control grading, ERYSIPHE GRAMINIS (BARLEY)” value [2]?
Its value is 4 (4 = no disease).

And the “disease control grading, VENTURIA INAEQUALIS (APPLE)” value [3]?
Its value is 3 (3 = trace - 5% of disease on untreated plants).

And the “disease control grading, CERCOSPORA ARACHIDICOLA (PEANUT)” value [4]?
The value was 3 (3 = trace - 5% of disease on untreated plants).

How did the “disease control grading, PUCCINIA RECONDITA (WHEAT)” value [1] turn out when C[C@@H]1CN(C[C@@H]2C[C@@]2(C)c2ccc(C(C)(C)C)cc2)C[C@H](C)O1 (relative stereo) [Compound 15] was run?
The value was 3 (3 = trace - 5% of disease on untreated plants).

And the “disease control grading, ERYSIPHE GRAMINIS (BARLEY)” value [2]?
The value was 4 (4 = no disease).

And the “disease control grading, VENTURIA INAEQUALIS (APPLE)” value [3]?
The value was 3 (3 = trace - 5% of disease on untreated plants).

From patent EP0188887A1, “Tertiary amine compounds” (IMPERIAL CHEMICAL INDUSTRIES PLC, priority 1985, dated 1986)
